Experimental data taken from patent US4582821A, “Inhibition of cyclic nucleotide independent protein kinases” (E. I. Du Pont de Nemours and Company, priority 1983, dated 1986).

What was measured:
[1] = test system: erythroleukemia cell line K-562; assay: Tumor cell line growth inhibition, K-562; assay type: cell-based
Experimental: (§1) In this series of experiments, the tumor cell growth inhibitory capacity of various peptide halomethyl ketones was tested against lymphoma cell lines YAC-1 and MOLT-4, and against an erythroleukemia cell line, K-562. The lymphoma cell line YAC-1 is described by Kiessling, et al., Eur. J. Immunol. 5:112 (1975), and MOLT-4 is described by Minowada, et al., J. Natl. Cancer Inst. 49:891 (1972) and Nilsson, et al., Int. J. Cancer 15:321 (1975). The erythroleukemia cell line K-562 is described by Lozzio, et al., Leuk. Res. 3:363 (1979). In these experiments, cells were grown on standard media as 10 mL suspension cultures. Initial cell density was 10^5 cells/mL. At day 0, test compounds were introduced in ethanol; control cultures received an equal volume of ethanol. Cells were counted at the times indicated.

[2] = test system: A-431 plasma membrane extracts (EGF-mediated protein phosphorylation); assay: Protein phosphorylation in solubilized A-431 plasma membrane extracts, with or without EGF; assay type: biochemical, human
Outline: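 Triton X-100-solubilized A-431 plasma membranes (15-150 μg protein) in 20 mM Hepes pH 7.4 with 1 mM MnCl2, ± 100 ng EGF, preincubated with compound 10 min at ~23°, then 10 min at 0°. Phosphorylation started with 15 μM [γ-32P]ATP, stopped after 3 min at 0°; TCA-precipitated radioactivity counted.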

[3] = test system: lymphoma cell line MOLT-4; assay: Tumor cell line growth inhibition, MOLT-4; assay type: cell-based
Experimental: as §1

lymphoma cell line YAC-1 = assay: Tumor cell line growth inhibition, YAC-1; assay type: cell-based
Experimental: as §1

[4] = test system: EGF-mediated tyrosine phosphorylation in Triton extracts of A-431 cell membranes; assay: Phosphoamino acid analysis of labeled Triton extracts of A-431 cell membranes; assay type: biochemical, human; settings: for Total Phosphoprotein / P-serine radioactivity / P-threonine radioactivity / P-tyrosine radioactivity: 349 nmoles/mg protein; for Total Phosphoprotein: 1/7 aliquot
Experimental: Triton extracts of A-431 cell membranes, prepared substantially as described previously, containing 37.5 μg protein, were labeled with [γ-^32 P] ATP (5 μM, 5 μCi) for 3 minutes at 0° in the presence and absence of Boc-LeuCH2 Br (349 nmoles/mg protein). Protein samples were hydrolyzed and phosphoamino acids were separated by the following procedure.
After labeling, membrane proteins were treated with 10% trichloroacetic acid (TCA) containing 10 mM sodium pyrophosphate and 100 μg BSA. After incubation for one hour at 0°, the foregoing mixture was centrifuged at 3,000 rpm and the resulting pellet washed 3 times with 10% TCA/10 mM sodium pyrophosphate. After recentrifugation, the final pellet was washed with ethanol, dried under vacuum, and dissolved in 70 μL of 0.1N NaOH prior to transfer to glass test tubes containing 0.5 mL 6N hydrochloric acid. The tubes were sealed under vacuum and samples were hydrolyzed at 100° for one hour. The resulting hydrolysates were lyophilized, resuspended in 30 μL water and electrophoresed on Whatman 3MM paper for 3 hours at 3,000 V, at pH 3.5 in 5% acetic acid/0.5% pyridine. Phosphotyrosine, phosphoserine, and phosphothreonine (10 μg of each) were employed as markers. Following electrophoresis, spots corresponding to the foregoing phosphoamino acids were located by ninhydrin treatment, excised, and bleached with 6% hydrogen peroxide. Radioactivity of the spots was determined by scintillation counting and expressed as cpm. Total phosphoprotein of a 1/7 aliquot of each reaction mixture was determined as previously described.

Structure (SMILES): CC(C)CC(NC(=O)OC(C)(C)C)C(=O)CBr (stereo not shown) [Boc-LeuCH2 Br]
- % Growth Relative to Control Cultures ([1]; 0.4 μg/mL, day 3): 70%
- % Growth Relative to Control Cultures ([1]; 0.4 μg/mL, day 7): 85%
- % Growth Relative to Control Cultures ([1]; 2.0 μg/mL, day 1): 53%
- % Growth Relative to Control Cultures ([1]; 2.0 μg/mL, day 2): 22%
- % Growth Relative to Control Cultures ([1]; 2.0 μg/mL, day 3): 19%
- % Growth Relative to Control Cultures ([1]; 2.0 μg/mL, day 4): 16%
- % Growth Relative to Control Cultures ([1]; 2.0 μg/mL, day 7): 69%
- % Growth Relative to Control Cultures ([1]; 10. μg/mL, day 1): 33%
- % Growth Relative to Control Cultures ([1]; 10. μg/mL, day 2): 22%
- % Growth Relative to Control Cultures ([1]; 10. μg/mL, day 3): 7%
- % Growth Relative to Control Cultures ([1]; 10. μg/mL, day 4): 17%
- % Growth Relative to Control Cultures ([1]; 10. μg/mL, day 7): 13%
- % inhibition, EGF Added ([2]; 400 nmol/mg protein): 65%
- EGF Added (pmol 32P incorporated/min/mg protein) ([2]; 400 nmol/mg protein, control 20.2): 7.0 pmol^32 P incorporated/min/mg
- % inhibition, EGF Added ([2]; 477 nmol/mg protein): 72%
- EGF Added (pmol 32P incorporated/min/mg protein) ([2]; 477 nmol/mg protein, control 96.2): 27.4 pmol^32 P incorporated/min/mg
- % inhibition, No EGF Added ([2]; 400 nmol/mg protein): 69%
- No EGF Added (pmol 32P incorporated/min/mg protein) ([2]; 400 nmol/mg protein, control 7.3): 2.3 pmol^32 P incorporated/min/mg
- % inhibition, No EGF Added ([2]; 477 nmol/mg protein): 74%
- No EGF Added (pmol 32P incorporated/min/mg protein) ([2]; 477 nmol/mg protein, control 21.6): 5.6 pmol^32 P incorporated/min/mg
- % Growth Relative to Control Cultures ([3]; 0.4 μg/mL, day 2): 66%
- % Growth Relative to Control Cultures ([3]; 0.4 μg/mL, day 3): 84%
- % Growth Relative to Control Cultures ([3]; 0.4 μg/mL, day 4): 67%
- % Growth Relative to Control Cultures ([3]; 2.0 μg/mL, day 2): 29%
- % Growth Relative to Control Cultures ([3]; 2.0 μg/mL, day 3): 31%
- % Growth Relative to Control Cultures ([3]; 2.0 μg/mL, day 4): 21%
- % Growth Relative to Control Cultures ([3]; 2.0 μg/mL, day 7): 74%
- % Growth Relative to Control Cultures ([3]; 10. μg/mL, day 1): 49%
- % Growth Relative to Control Cultures ([3]; 10. μg/mL, day 2): 16%
- % Growth Relative to Control Cultures ([3]; 10. μg/mL, day 3): 14%
- % Growth Relative to Control Cultures ([3]; 10. μg/mL, day 4): 9%
- % Growth Relative to Control Cultures ([3]; 10. μg/mL, day 7): 14%
- % Growth Relative to Control Cultures (lymphoma cell line YAC-1; 0.4 μg/mL, day 4): 97%
- % Growth Relative to Control Cultures (lymphoma cell line YAC-1; 2.0 μg/mL, day 1): 42%
- % Growth Relative to Control Cultures (lymphoma cell line YAC-1; 2.0 μg/mL, day 2): 31%
- % Growth Relative to Control Cultures (lymphoma cell line YAC-1; 2.0 μg/mL, day 3): 28%
- % Growth Relative to Control Cultures (lymphoma cell line YAC-1; 2.0 μg/mL, day 4): 12%
- % Growth Relative to Control Cultures (lymphoma cell line YAC-1; 2.0 μg/mL, day 7): 28%
- % Growth Relative to Control Cultures (lymphoma cell line YAC-1; 10. μg/mL, day 1): 67%
- % Growth Relative to Control Cultures (lymphoma cell line YAC-1; 10. μg/mL, day 2): 32%
- % Growth Relative to Control Cultures (lymphoma cell line YAC-1; 10. μg/mL, day 3): 22%
- % Growth Relative to Control Cultures (lymphoma cell line YAC-1; 10. μg/mL, day 4): 13%
- % Growth Relative to Control Cultures (lymphoma cell line YAC-1; 10. μg/mL, day 7): 16%
- Total Phosphoprotein ([4]; EGF absent, control 3408): 2024 cpm
- P-serine radioactivity ([4]; EGF absent, control 328): 300 cpm
- P-threonine radioactivity ([4]; EGF absent, control 1100): 1180 cpm
- P-tyrosine radioactivity ([4]; EGF absent, control 1152): 488 cpm
- Total Phosphoprotein ([4]; EGF present, control 12204): 5332 cpm
- P-serine radioactivity ([4]; EGF present, control 494): 262 cpm
- P-threonine radioactivity ([4]; EGF present, control 1994): 1270 cpm
- P-tyrosine radioactivity ([4]; EGF present, control 18000): 5554 cpm
- inhibition of tyrosine phosphorylation (in words) ([4]; both the presence and absence of EGF): pronounced inhibition of tyrosine phosphorylation
